Several values for one entry are separate records, joined by “and”; a condition that tells them apart may be missing. Identical values can stand only once.
Key:
[1] = tested on: C3H10T1/2 cells; assay: Differentiation of adipocytes (oil Red O staining); type: cell-based; details: for Differentiation of the cells into adipocytes versus insulin alone (result in words): co-treatment with insulin, 10 days; for Mean OD ± SEM (oil Red O, 540 nm): 10-day treatment
Experimental: After the 10-day treatment, the cells were stained with oil Red O as follows: cells were washed 2× in PBS and fixed in 10% formalin at room temperature for 1 h. After removal of formalin, 200 μl of oil Red O staining solution (3:2 mixture of 0.5% w/v oil Red O stock solution and water) was applied to each well. The cells were incubated for 20 min at room temperature, washed twice in 2×PBS and incubated for 10 min with 300 μl of isopropanol/well for oil Red O extraction. Quantification of oil Red O was determined by measuring absorbance at 540 nm (mean OD).
The measurement of adipocyte differentiation using the oil Red O assay was performed as described in Example 4.

[2] = tested on: C3H10T1/2 cells; assay: Glucose uptake of adipocytes (radioactive 2-deoxyglucose); type: cell-based; details: for Basal glucose uptake / Basal glucose uptake (result in words): 48-h treatment; for Basal glucose uptake: absence of insulin, ± SEM; for Basal glucose uptake (result in words): different concentrations
Experimental: C3H10T1/2 cells (ATCC CCL-226) were grown for 5 days to confluence in DMEM supplemented with 10% FBS medium and induced with a mixture of insulin, dexamethasone and 3-isobutyl-1-methylxanthine to differentiate into adipocytes. Nine days after the beginning of induction, cells were treated for 48-h with ligustilide at different concentrations as shown in Table 2. Glucose uptake was determined using radioactive 2-deoxyglucose (10 μM 2-DG in HBS+0.5 μCi/ml of 3[H]-2-DG), measuring glucose uptake in the absence of insulin. Basal glucose uptake was increased by 48-h treatment with ligustilide in a dose-dependent manner (Table 2). This increase in glucose uptake was specific, since the increase was not observed in the presence of phloretin, a known inhibitor of specific glucose uptake.
Growing, induction and treatment of C3H10T1/2 cells were exactly as described in Example 1, with die exception that 3-butylphthalide at different concentrations was used instead of ligustilide.
Growing, induction and treatment of C3H10T1/2 cells were exactly as described in Example 1, with the exception that 3-butylidenphthalide at different concentrations was used instead of ligustilide.

[3] = tested on: C57BLKS/J db/db mice; assay: Blood glucose and oral glucose tolerance test in db/db mice; type: in vivo
Experimental: The efficacy of ligustilide on glucose tolerance was tested in a 7-day study in C57BLKS/J db/db mice (n=10/group), a model of late type 2 diabetes mellitus with severe hyperglycemia which is widely used to determine the efficacy of PPARγ ligands.
Male db/db mice were obtained from Jackson Laboratory (Bar Harbor, Me., USA). Adult mice aged 12 weeks were used in the experiment. Mice were housed individually in plastic cages with bedding and allowed free access to standard rodent food and tap water. The animal rooms were controlled for temperature (24° C.), humidity (55%), and light (12-h light-dark cycle). The animals were randomized in two groups and ligustilide was administered orally to one of the groups for 7 days at a dose of 200 mg/kg BW/day. After 7 days of treatment the concentration of glucose was determined in blood from fed animals, i.e., animals which were not restricted from food. After a period of 5 days of treatment an oral glucose tolerance test (OGTT) was performed. For the OGTT mice were fasted overnight and then a 1-g glucose/kg BW solution was orally administered. […] Blood glucose was measured by a glucose analyzer (Glucotrend Premium, Roche Diagnostics, Rotkreuz, Switzerland).

[4] = insulin 1 × 10^−7 M + compound 1 × 10^−5 M
[5] = insulin 1 × 10^−7 M + compound 1 × 10^−4 M

Row | Compound | Differentiation of the cells into adipocytes versus insulin alone (result in words) [1] | Mean OD ± SEM (oil Red O, 540 nm) [1, 4] | Basal glucose uptake ([2]; 1 × 10^−4 M) | Basal glucose uptake ([2]; 1 × 10^−5 M) | Basal glucose uptake ([2]; 1 × 10^−6 M) | Basal glucose uptake (result in words) [2] | Mean OD ± SEM (oil Red O, 540 nm) [1, 5] | Basal glucose uptake ([2]; 5 × 10^−5 M) | other results
1 | CCCC[C@@H]1OC(=O)c2ccccc21 (stereo in doubt) [3-Butylphthalide] | higher differentiation | 0.21 ± 0.01 | 136.7 ± 8.5 % of control | 97.5 ± 8.5 % of control | 99.3 ± 8.5 % of control | increase | – | – | –
2 | Insulin [reference compound] | – | – | – | – | – | – | – | – | Mean OD ± SEM (oil Red O, 540 nm) ([1]; insulin 1 × 10^−7 M alone): 0.14 ± 0.01 and 0.16 ± 0.01; Mean OD ± SEM (oil Red O, 540 nm) ([1]; insulin 2 × 10^−7 M alone (negative control)): 0.687 ± 0.34
3 | CCC/C=C1\OC(=O)c2ccccc21 [3-Butylidenephthalide] | higher differentiation | 0.15 ± 0.01 | 137.3 ± 8.5 % of control | 123.8 ± 8.5 % of control | 107.0 ± 8.5 % of control | increase | 0.28 ± 0.01 | – | Mean OD ± SEM (oil Red O, 540 nm) ([1]; insulin 1 × 10^−7 M + compound 5 × 10^−5 M): 0.22 ± 0.01
4 | CCC/C=C1\OC(=O)C2=C1CCC=C2 [Ligustilide] | higher differentiation | – | 175.0 ± 24.4 % of control | – | – | increased | – | 131.8 ± 24.4 % of control | Mean OD ± SEM (oil Red O, 540 nm) ([1]; insulin 2 × 10^−7 M + compound 5 × 10^−6 M): 1.71 ± 0.34; Glucose AUC of an OGTT (result in words) ([3]; 1 g glucose/kg body weight, day 5): significantly reduced; Blood glucose levels during the OGTT versus control (result in words) ([3]; OGTT on day 5, 15-180 min): lower at all time points; Glucose levels of fasted animals versus untreated control (result in words) ([3]; after 5 days of treatment, overnight fasting): significantly decreased; Glucose levels of fed animals (result in words) ([3]; after 7 days of treatment, 200 mg/kg BW/day): significantly lowered; Blood Glucose Fasted ([3]; db/db mice, 200 mg/kg BW/day orally, after 5 days, overnight fasting): 196 mg/dL; Blood Glucose Fed ([3]; db/db mice, 200 mg/kg BW/day orally, after 7 days, fed animals): 388 mg/dL; Glucose AUC (OGTT) ([3]; db/db mice, 200 mg/kg BW/day orally, day 5, OGTT 1 g glucose/kg BW, 0-180 min): 51039; Basal glucose uptake ([2]; 2 × 10^−4 M): 294.4 ± 24.4 % of control; Basal glucose uptake ([2]; 5 × 10^−6 M): 105.9 ± 24.4 % of control; Increase in glucose uptake in the presence of phloretin ([2]; phloretin, inhibitor of specific glucose uptake): not observed
5 | CC1(COc2ccc(CC3SC(=O)NC3=O)cc2)CCCCC1 (centres unmarked) [Ciglitazone, reference compound] | – | – | – | – | – | – | – | 381.5 ± 24.4 % of control | –
6 | CCCC[C@@H]1OC(=O)C2=CCCCC21 (some centres unmarked) [Sedanolide] | higher differentiation | 0.15 ± 0.01 | – | – | – | – | 0.18 ± 0.01 | – | –
